# Tests used:
# Type in all cases: cell-based, Murine
# ESCs [1] = experiment: Oct-4 expression of reseeded ESCs by flow cytometry
# Method: (§1) To assess cell proliferation, ESCs of 0.5×10^5 per mL were seeded on the decelluarized ECMs and cultivated for 4 days in expansion media without LIF (FIG. 1). […] Cell numbers were determined at days 0, 2, and 4 using a hemocytometer after trypsin/EDTA dissociation. The specific growth rates were calculated as the slope of the proliferation curve. Cell viability was determined by the incubation with 5 mg/mL 3-(4,5-Dimethylthiazol-2-yl)-2,5-diphenyltetrazolium bromide (MTT, Sigma) solution. Afterwards, the formazan crystals were hydrolyzed with dimethyl sulfoxide (Sigma) and measured at 500 nm using a microplate reader. For the test of RA signaling, soluble RA (1 μM) or BMS 493 (1 μM, Santa Cruz), a pan-RAR antagonist, was supplemented in the media. To assess the differentiation ability after culturing on the decellularized ECMs, ESCs were replated on 0.1% gelatin-coated 12-well plates and cultured for 7 days in differentiation medium without any inducing growth factors. The cells were evaluated for the expression of Nestin (ectoderm), β-tubulin III (ectoderm), α-actinin (mesoderm), and FOXA2 (endoderm).
# For flow cytometry, 1×10^6 cells per sample were fixed with 4% PFA and washed with staining buffer (2% FBS in PBS). […] The cells were acquired with BD FACSCANTO II flow cytometer (Becton Dickinson) and analyzed against isotype controls using FlowJo software.
# ESC-derived NPCs [2] = experiment: NPC proliferation assays on ECM scaffolds (fold expansion, MTT); conditions: NPCs on DE-EC and DE-NG scaffolds, BMS 493 1 μM, FIG. 17A
# Method: For various ECM scaffolds, 1×10^6 dissociated NPCs or intact NPC aggregates derived from ESCs were reseeded on the ECM scaffolds and cultivated for 3-4 days in DMEM-F12 containing 2% B27. The cells were analyzed for colonization on the scaffolds, proliferation, and viability. To study the effect of retinoid signaling, BMS 493 (1 μM, Santa Cruz), a pan-retinoic acid receptor (RAR) antagonist, was supplemented in the media for some experiments.
# Cell proliferation assays: Cell numbers were determined at days 3 using a hemocytometer after trypsin/EDTA dissociation for fold expansion. Cell proliferation kinetics was also determined by incubating with 5 mg/mL 3-(4,5-Dimethylthiazol-2-yl)-2,5-diphenyltetrazolium bromide (MTT, Sigma) solution. Afterwards, the formazan crystals were hydrolyzed with dimethyl sulfoxide (Sigma) and measured at 500 nm using a microplate reader.
# ESCs [3] = experiment: ESC reseeding and proliferation on decellularized ECMs (specific growth rate)
# Method: as §1
# ESC-derived NPCs [4] = experiment: Neural marker expression of reseeded NPCs by flow cytometry; conditions: for GFAP expression upon BMS 493 treatment: FIG. 17D
# Method: For various ECM scaffolds, 1×10^6 dissociated NPCs or intact NPC aggregates derived from ESCs were reseeded on the ECM scaffolds and cultivated for 3-4 days in DMEM-F12 containing 2% B27. The cells were analyzed for colonization on the scaffolds, proliferation, and viability. To study the effect of retinoid signaling, BMS 493 (1 μM, Santa Cruz), a pan-retinoic acid receptor (RAR) antagonist, was supplemented in the media for some experiments. After 3 days of culture in suspension, the NPC-ECM constructs were replated in 24-well plates coated with Geltrex™, the LDEV-Free Reduced Growth Factor Basement Membrane Matrix (Life Technologies), for another 3 days. The differentiation was assessed by immunocytochemistry for neural markers. […] The samples were then blocked and incubated with mouse or rabbit primary antibody against: Nestin (Sigma) or Musashi-1 (Abcam) for neural progenitors, β-tubulin III (Millipore) for neurons, or GFAP (Millipore) for astrocytes. After washing, the cells were incubated with the corresponding secondary antibody: Alexa Fluor® 488 goat anti-Mouse IgG1 for GFAP and β-tubulin III, or Alexa Fluor® 488 goat anti-Rabbit IgG for Nestin and Musashi-1 (Molecular Probes). The samples were mounted with 4′,6-Diamidino-2-Phenylindole (DAPI) and visualized using a fluorescent microscope. To quantify the levels of neural marker expression, the cells on ECM scaffolds were harvested by trypsinization and analyzed by flow cytometry. Briefly, 1×10^6 cells per sample were fixed with 4% PFA and washed with staining buffer (2% FBS in PBS). […] Alexa Fluor® 488 goat anti-Mouse IgG1 (for GFAP and β-tubulin III) or Alexa Fluor® 488 goat anti-Rabbit IgG (for Nestin and Musashi-1). The cells were acquired with BD FACSCanto™ II flow cytometer (Becton Dickinson) and analyzed against isotype controls using FlowJo software.
# ESCs [5] = experiment: Three-germ layer differentiation of ESCs grown on decellularized ECM scaffolds
# Method: (§2) To detect differentiation markers, the cells were incubated with mouse or rabbit primary antibody against: Nestin (Millipore), β-tubulin III (Sigma), α-actinin (sarcomeric, Sigma), or FOXA2 (Millipore). After washing, the cells were incubated with the corresponding secondary antibody: ALEXA FLUOR 488 goat anti-Mouse IgG1 (for Nestin and α-actinin) or IgG2b (for β-Tubulin III), or ALEXA FLUOR 488 goat anti-Rabbit IgG (for FOXA2). The localization of RAR-α was also assessed using goat anti-Rabbit RAR-α antibody (Abcam) detected by ALEXA FLUOR 594 donkey anti-Goat IgG.
# as §1
# For flow cytometry, 1×10^6 cells per sample were fixed with 4% PFA and washed with staining buffer (2% FBS in PBS). The cells were stained with DNA-intercalating dye ethidium monoazide bromide (EMA, Sigma) and permeabilized with 100% cold methanol. The samples were incubated with primary antibodies against Oct-4 (Millipore), Nestin, β-tubulin III, α-actinin, or FOXA2 followed by the corresponding secondary antibody: ALEXA FLUOR 488 goat anti-Mouse IgG1 (for Oct-4, Nestin, and α-actinin) or IgG2b (for β-tubulin III), or ALEXA FLUOR 488 goat anti-Rabbit IgG (for FOXA2). The cells were acquired with BD FACSCANTO II flow cytometer (Becton Dickinson) and analyzed against isotype controls using FlowJo software.
# RAR-α = molecular target: T1, RAR-α (Mus musculus, UniProt P11416); experiment: RAR-α localization in ESCs by immunocytochemistry; conditions: ESCs on DE-RA10 without soluble RA; ESC monolayers exposed to soluble RA, FIG. 8A
# T1 construct: Localization of RAR-α in ESC monolayers with or without RA treatment; endogenous in cells; host or cells: embryonic stem cells (monolayers, or reseeded on DE-RA10 scaffolds)
# T1 sequence (P11416 1-462): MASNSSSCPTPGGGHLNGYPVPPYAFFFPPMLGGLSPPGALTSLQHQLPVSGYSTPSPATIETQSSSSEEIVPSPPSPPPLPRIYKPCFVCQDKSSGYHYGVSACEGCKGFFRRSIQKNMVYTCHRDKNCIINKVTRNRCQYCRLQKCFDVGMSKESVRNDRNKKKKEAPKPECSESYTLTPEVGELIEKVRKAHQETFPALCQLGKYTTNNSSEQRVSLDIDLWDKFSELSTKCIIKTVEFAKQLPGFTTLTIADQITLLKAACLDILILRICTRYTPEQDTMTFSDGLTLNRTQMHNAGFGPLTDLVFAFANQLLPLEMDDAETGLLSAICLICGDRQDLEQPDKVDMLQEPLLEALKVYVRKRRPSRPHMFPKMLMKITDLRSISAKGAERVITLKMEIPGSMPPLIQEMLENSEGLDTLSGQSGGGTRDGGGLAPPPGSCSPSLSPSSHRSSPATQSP
# Method: as §2
# as §1, with “For the test of RA signaling, soluble RA (1 μM) or BMS 493 (1 μM, Santa Cruz), a pan-RAR antagonist, was supplemented in the media. To assess the differentiation ability after culturing on the decellularized ECMs, ESCs were replated on 0.1% gelatin-coated 12-well plates and cultured for 7 days in differentiation medium without any inducing growth factors.” left out
# [6] = BMS 493 (1 μM) added in the DE-RA10 culture, FIG. 8C
# [7] = BMS 493 treated vs untreated, ESCs on DE-RA10, FIG. 8E
# [8] = FIG. 8E: ESCs on DE-RA10 with or without BMS 493 (1 μM)
# [9] = FIG. 8B: cells in DE-RA10 vs cells in DE-SE10 treated with soluble RA (1 μM)
# [10] = FIG. 8D: ESCs on DE-RA10 vs ESCs treated by soluble RA
SMILES,Oct-4 expression (ESCs [1]; [6]),cell proliferation after BMS 493 treatment (ESC-derived NPCs [2]),ESC proliferation (ESCs [3]; [6]),GFAP expression upon BMS 493 treatment (ESC-derived NPCs [4]; DE-EC condition),"neural marker expression upon BMS 493 (ESC-derived NPCs [4]; NPCs, DE-AC group)","Nestin expression upon BMS 493 treatment (ESC-derived NPCs [4]; NPCs, DE-EC and DE-NC conditions, FIG. 17B)","β-Tubulin III expression upon BMS 493 treatment (ESC-derived NPCs [4]; cells from DE-NC scaffold, FIG. 17C)",GFAP expression upon BMS 493 treatment (ESC-derived NPCs [4]; cells from DE-NC scaffold),Nestin expression (ESCs [5]; [7]),β-tubulin III expression (ESCs [5]; [7]),expression of FOXA2 (ESCs [5]; [8]),expression of α-actinin (ESCs [5]; [8]),Oct-4 expression (ESCs [1]; [9]),specific growth rate (ESCs [3]; [9]),localization of RAR-α (RAR-α),Nestin expression (ESCs [5]; [10]),β-tubulin III expression (ESCs [5]; [10])
CC1(C)CC=C(C#Cc2ccccc2)c2cc(/C=C/c3ccc(C(=O)O)cc3)ccc21 [BMS 493],not Oct-4 expression,reduced the cell proliferation,reduced ESC proliferation,increased GFAP expression,no changes in neural marker expression,increased,significant decrease,significant decrease,increased,similar,24%,3%,,,,,
"CC1=C(/C=C/C(C)=C/C=C/C(C)=C/C(=O)O)C(C)(C)CCC1 [soluble RA, all-trans retinoic acid]",,,,,,,,,,,,,10.1%,-0.013 h⁻¹,translocation of RAR-α from cytoplasm to cell nucleus was confirmed,32%,25%

# Reference: patent US10035980B2, “Extracellular matrix derived from stem cells and methods for production” (FLORIDA STATE UNIVERSITY RESEARCH FOUNDATION, INC., priority 2013, dated 2018)
